The subject of this data set is MDA-MB-231 breast carcinoma cells. In words: In vivo tumor formation, orthotopic mouse model, MDA-MB-231 breast carcinoma cells. The conditions noted are these: 500,000 MDA-MB-231 cells treated with Morpholino before injection. The text has this:
(A) In vivo tumor formation in a mouse injected with MDA-MB-231 cells pre-exposed for 3 days to either a control matrix (Matrigel) or a matrix conditioned by hESCs (H9 CMTX) (n=10) (B) C81-61 cells, transfected with either an empty vector or a Nodal expression construct (n=5), and (C) MDA-MB-231 cells treated with either MO^Control or MO^Nodal (n=10). […] (D) The ratio of tumor cell proliferation to apoptosis for C8161 and MDA-MB-231 derived tumors, determined by immunohistochemical staining for Ki67 and terminal deoxynucleotidyl transferase biotin-dUTP nick-end labeling (TUNEL). Prior to injection into a mouse, C8161 and MDA-MB-231 cells were cultured for 3 days on control or hESC conditioned (H9 CMTX) matrices, or treated with MO^Nodal to knock down Nodal expression. […] Proliferation is indicated by Ki67 staining and apoptotic nuclei were detected with confocal microscopy as red staining localized to the nuclei of apoptotic C8161 or MDA-MB-231 cells. […]
The effects of the hESC microenvironment on the in vivo tumorigenicity of melanoma and breast carcinoma cells were examined using orthotopic mouse models. […] The […] C81-61 melanoma cell line was unable to form palpable tumors when 500,000 cells were injected, and using gross observation and histology 5.5 weeks after inoculation, these tumor cells could not be detected at the site of injection. […]

As to “MO^Nodal: FITC-conjugated anti-sense Morpholino to Nodal, 5′-AAGCAGCACCTCCAGCCCTTATATC-3′ [SEQ ID NO: 20] (all phosphorodiamidate morpholino (PMO); FITC conjugated, position not given here)”, the tumorigenicity entry is given as “significant reduction”.
